“Also recorded” adds a separate entry of the source. Where two headings read alike, the source gives them in different places. Where no end group is shown, it is not given here.
Key:
human islets [1] = test: Glucose-stimulated insulin secretion (GSIS) assay, human islets; format: cell-based; conditions: for GSIS response / insulin secretion compared to C-95 peptide: human islets, 1 μM peptide overnight, 28 mM glucose
Protocol: (§1) Human islet cells were similarly incubated with a N-94 peptide or C-95 peptide for varying periods of time following which GSIS assay and viability measurements were conducted. Insulin was measured using Insulin ELISA kit (Mercodia, Uppsala, Sweden).
(§2) Human islet cells were incubated overnight with 1 μM N-94 peptide (SEQ ID NO: 1), N-94/C6 peptide (SEQ ID NO: 62), N104 peptide, Tearpep3 peptide (SEQ ID NO: 21), Tearpep3/C6 peptide (SEQ ID NO: 33), C-95 peptide, or no treatment followed by GSIS assays (se FIG. 2A for the structures of, and Table 2 for the sequences of, these exemplary peptides). C57BL/6 islet cells were pretreated with 4 μM N-94 N-94 peptide or C-95 peptide or saline for 24 hours followed by minimal islet mass transplantation into syngeneic diabetic recipients. Tail vein blood glucoses were measured daily.
(§3) 50 human islets were incubated with N-94 peptide or C-95 peptide for 1, 3, 4, 6 and 9 days following which GSIS assay and viability measurement were conducted. Insulin was measured using Insulin ELISA kit (Mercodia).
Human islets were incubated overnight with 1 μM N-94 peptide, N-94/C6 peptide, N104 peptide, Tearpep3 peptide, Tearpep3/C6 peptide, C-95 peptide, or no treatment and GSIS assay performed.

human islets [2] = test: Viability of cultured human islets; format: cell-based
Protocol: as §1, §3
Human islets were treated with various peptides of the presently disclosed subject matter and viability was assessed at twenty days post-treatment.

C57BL/6 islets [3] = format: cell-based, mouse; conditions: for viability of islets: C57BL/6, mouse, 4 μM; for mouse islet viability (in words): isolated mouse pancreatic islets, 4 μM peptide, in vitro
Protocol: C57BL/6 islets (see FIG. 3) were cultured with 4 μM N-94 (N-94) peptide or control peptide C-95 for different time periods ranging from 1-15 days in DMEM at 37° C. Viability of islets was scored by propidium iodide-fluorescein diacetate staining. 35 C57BL/6 islets/per well were cultured with 4 μM of N-94 peptide analog N-94 or control C-95 peptide for 1, 2, 5, 7,10 or 15 days in DMEM at 37° C. Viability of islets was scored after staining with PI/FDA. Islets cultured with N-94 peptide retained 95±3, 89±15, 80±17.5 and 61±21% viability while islets cultured with C-95 peptide retained 95±3, 87±13, 40±28 and 20±19% viability at Day 1, 5, 10 and 15.

C57BL/6 islets [4] = test: Glucose-stimulated insulin secretion (GSIS) assay, mouse islets; format: cell-based; conditions: for insulin secreted in GSIS assay: 50 islets/well, high glucose (28 mM); for GSIS: mouse islet cells
Protocol: C57BL/6 islets were also incubated overnight with 4 μM N-94 peptide (SEQ ID NO: 1) or C-95 peptide or no additive following which Glucose-stimulated Insulin secretion (GSIS) assays were performed.
C57BL/6 islets were incubated overnight with 4 μM N-94 peptide or C-95 peptide or no additive. 50 islets/well were used to perform Glucose stimulated Insulin secretion (GSIS) assay. Islets that were untreated or treated with C-95 peptide or with N-94 peptide and stimulated with high glucose (28 mM) secreted 39.86±7.81, 54.9±18.14, and 91±22.16 ng/ml Insulin. N-94 peptide increased insulin secretion by 2-fold compared to untreated control. Viability of human islets incubated with N-94 peptide at Day 1, 3, 4, 6, and 9 was 95±4, 95±3, 94±4, 84±9, and 80±15% while with C-95 it was 94±4, 91±7, 88±8, 66±16, and 65±18%. With saline it was 94±4, 94±3, 88±8, 58±19, and ˜53. While GSIS results were similar to the mouse results, maximum insulin secretion activity with N-94 peptide was only observed on Day 1 and 3.

[5] = test system: C57BL/6 mice made diabetic by single streptozotocin injection; test: Minimal islet mass transplantation of peptide-pretreated islets into streptozotocin-diabetic mice, blood glucose; format: in vivo, mouse
Protocol: as §2
75 C57Bl/6 islets were transplanted into C57BL/6 recipients made diabetic by single STZ injection (220 mg/Kg). Islets were pretreated with 4 μM N-94 peptide or C-95 peptide or saline for 24 hours prior to transplantation into diabetic mice (n=2 mice/group). Tail vein blood glucoses were measured daily. Incubation of islets with N-94 peptide permanently returned transplanted mice to normoglycemia with glucoses below 200 mg/dL within 9 days posttransplant. With C-95 peptide treatment, the glucose at Day 12 posttransplant was <250 mg/dL. Mice transplanted with untreated islets remained diabetic.
FIG. 4 is a graph of blood glucose levels of pancreatic islets treated with the indicated peptides and transplanted into diabetic mice observed for 60 days. Shown is a graph of blood glucose levels after minimal transplantation of 75 N-94 peptide-treated, C-95 peptide-treated, or saline-treated C57Bl/6 islets under the kidney capsule of C57BL/6 mice made diabetic before transplantation by single streptozotocin injection (220 mg/kg; two mice per group). Pretreatment was for 24 hours. Tail vein blood was collected daily for glucose analyses. Each line represents the progressive blood glucose level of a single diabetic mouse. Six mice each received N-94 peptide treated islets (black), six others received C-95 peptide treated islets (blue), and four received saline treated islets (orange). N-94 peptide permanently returned transplanted mice to normoglycemia with glucose below 200 mg/dL within 9 days post-transplantation with treatment efficacy continuing after 40 days post-transplantation. With C-95 peptide treatment, the glucose at Day 12 post-transplant was <250 mg/dL. Average blood glucoses measured between Days 22 to 43 were 142.9±17.6 mg/dL for the N-94 group compared to 275±34.8 mg/dL for the C-95 peptide group.

human sensory neurons = test: Viability of iPSC-derived sensory neurons stressed with inflammatory cytokines (Alamar Blue); format: cell-based; conditions: day 21 neurons, IFN-γ (1000 U/mL)+TNF-α (100 ng/mL), 1 mM peptide, 72 hours
Protocol: Whether the peptides of the presently disclosed subject matter could enhance viability of human sensory neurons stressed with inflammatory cytokines was tested. Sensory neurons were derived from Induced Pluripotent Stem Cells (iPSC). iPSCs were seeded into 12 well Matrigel-coated plates (1.25×10^5 cells/well). Neural differentiation was initiated when cells were confluent using KSR medium. 100 nM of LDN-193189 and […] of SB431542 were added to the culture from day 0 to 6, to inhibit SMAD signaling. On day 4, 25% of N2 medium was added to the culture, with 100% of N2 medium at day 10. Sensory neurons induction was initiated at day 2 (day 2-10), with the addition of […] CHIR 99021, […] SU5402, and […] DAPT. From day 10 to day 21 neuron maturation was promoted with 25 ng/mL of β-NGF, BDNF, and GDNF. Cells were fed every day.
Sensory neurons (day 21) were incubated with IFN-g (1000 U/mL)+TNF-α (100 ng/mL) with or without 1 mM of the N-94/C-6 peptide or the negative control C-95 peptide for 72 hours in a 96-well plate. Alamar Blue reagent (10%) was added in each well. Fluorescence was measured after 6 hours (excitation at 545 nm/emission at 590 nm).

[6] = C57BL/6 islets, 4 μM peptide overnight
[7] = 75 islets pretreated 24 hours with 4 μM peptide, STZ-diabetic C57BL/6 mice

Sequence | GSIS response / insulin secretion compared to C-95 peptide (human islets [1]) | viability of human islets (human islets [2]; 1 days) | viability of human islets (human islets [2]; 3 days) | viability of human islets (human islets [2]; 4 days) | viability of human islets (human islets [2]; 6 days) | viability of human islets (human islets [2]; 9 days) | viability of islets (C57BL/6 islets [3]; 1 days) | viability of islets (C57BL/6 islets [3]; 5 days) | viability of islets (C57BL/6 islets [3]; 10 days) | viability of islets (C57BL/6 islets [3]; 15 days) | mouse islet viability (in words) (C57BL/6 islets [3]) | insulin secreted in GSIS assay (C57BL/6 islets [4]; [6]) | GSIS (C57BL/6 islets [4]; 4 μM peptide overnight) | average blood glucose between Days 22 to 43 [5, 7] | other results
AQKLLKKFSLLKPWA [N-104] | ~3.5 fold |  |  |  |  |  |  |  |  |  |  |  |  |  | rank of activity in glucose-dependent insulin secretion assay (human islets [1]; 100 human islets, 1 μM peptide, 24 hours): Most active
EDASSDSTGADPAQEAGTSKPNEE [C-95, reference compound] |  | 94±4% | 91±7% | 88±8% | 66% | 65±18% | 95±3% | 87±13% | 40±28% | 20% | not | 54.9 ± 18.14 ng/mL | 54.9 ± 18.1 ng/mL | 275 ± 34.8 mg/dL | blood glucose at Day 12 posttransplant [5, 7]: < 250 mg/dL
GKNRRKNWHAQLFVL [Tearpep3/N-104] |  |  |  |  |  |  |  |  |  |  |  |  |  |  | viability of human islets twenty days after isolation (in words) (human islets [2]; human islets, 4 μM peptide, versus 4 μM Tearpep3/C-6 and lacritin N-94): superior viability
KQFIENGSEFAQKLLKKFS [N-94/C-6, fragment of lacritin] |  |  |  |  |  |  |  |  |  |  |  |  |  |  | viability of stressed human sensory neurons (in words) (human sensory neurons): restored viability
KQFIENGSEFAQKLLKKFSLLKPWA [N-94] | near doubling; also recorded: nearly doubled | 95±4% | 95±3% | 94±4% | 84% | 80±15% | 95±3% | 89±15% | 80±17.5% | 61% | promotes mouse islet viability | 91 ± 22.16 ng/mL | 91 ± 22 ng/mL | 142.9 ± 17.6 mg/dL | increase of GSIS / insulin secretion compared to untreated (C57BL/6 islets [4]; C57BL/6 islets, 4 μM peptide overnight, high glucose): ~2 fold; glucose-dependent insulin secretion (in words) (C57BL/6 islets [4]; isolated mouse pancreatic islets, 4 μM peptide, treatment 24 hours after islet isolation): promotes; time to normoglycemia (glucose below 200 mg/dL) posttransplant [5, 7]: ≤ 9 days; treatment efficacy continuing posttransplant [5, 7]: > 40 days; blood glucose on return to normoglycemia ([5]; 75 islets pretreated 24 hours with 4 μM peptide, transplanted into STZ-diabetic C57BL/6 mice, within 9 days posttransplant): below 200 mg/dL; effect of peptide-pretreated islet transplant on diabetes (in words) ([5]; pretreated islets transplanted into streptozotocin diabetic mice): rapidly restores normoglycemia; also recorded: reverse disease

Reference: patent US12233108B2, “Compositions and methods for promoting islet viability and enhancing insulin secretion” (University of Virginia Patent Foundation, priority 2019, dated 2025)
